PMC11359702, “Synthesis and Biochemical Evaluation of Ethanoanthracenes and Related Compounds: Antiproliferative and Pro-Apoptotic Effects in Chronic Lymphocytic Leukemia (CLL)” (Pharmaceuticals, 2024)
Several values for one entry are separate records, joined by “and”; a condition that tells them apart may be missing. Equal entries are not always repeated. Where two headings read alike, the source gives them in different places. Each block holds one compound with its values, some of them ahead of it.

Columns and labels:
HG-3 cells [1] = assay: alamarBlue cell viability assay; settings: for IC50 / viability at 10 µM / viability at 1 µM: HG-3, 24 h; for IC50: read-out: HG-3 IC50; for viability at 1 µM: read-out: cell viability, HG-3, 1 µM, 24 h, vehicle = 100%
PGA-1 cells [2] = assay: alamarBlue cell viability assay; settings: for IC50: read-out: PGA-1 IC50; for viability at 10 µM: read-out: cell viability
HG-3 cells [3] = assay: LDH cytotoxicity assay (CytoTox 96); assay type: cell-based; settings: 24 h
Text: (§1) The lactate dehydrogenase (LDH) assay is used to assess the membrane integrity of cells as a function of the cytoplasmic LDH released. The loss of cell membrane integrity (due to cytotoxic insult) is detectable through LDH release into the cell growth medium. The assay is initiated via the reduction in cellular co-factor NAD^+ to NADH catalyzed via the LDH enzyme. Newly formed NADH catalyzes the acidic reduction in iodonitrotetrazolium chloride (INT) to the highly colored formazan (red) (mediated via the diaphorase enzyme). […] At the 10-µM treatment concentration, mild to moderate cytotoxicity (19–47%) was observed. […] Cytotoxicity remained low to mild at 1 µM (4–18%) with 23a displaying the lowest LDH release (4%).
(§2) Following the treatment of the HG-3 and PGA-1 cells at 10 µM for 24 hr, the amount of LDH released was determined using an LDH assay kit from Promega (G1780). Cell lysis solution = 100% cell lysis and LDH release). Data are presented as % cell death at a concentration of 10 µM. Cells were treated with ethanoanthracene compounds 20a, 20f, 23a and 25n (1 µM and 10 µM) for 24 h. Values are shown as the mean of three independent experiments.
(§3) The cytotoxicity of the selected compounds 20a, 20f, 23a and 25n was determined using the CytoTox 96 non-radioactive cytotoxicity assay (Promega Corporation; 2800 Woods Hollow Road, Madison, WI, USA). CLL cells HG-3 and PGA-1 were incubated for 24 h and then treated with the selected compounds 20a, 20f, 23a and 25n at 10-µM and 1-µM concentrations, following the protocol outlined above in the cell viability assay. After 24 h, the lysis solution (10×) (20 µL) was added, and the cells were incubated for a further 1 h to ensure complete cell death. Supernatant (50 µL) was removed from each well and transferred to a clean 96-well plate. “Substrate mix” (50 µL) was added, and the plate was stored in the dark at 20 °C for 30 min. “Stop solution” (50 µL) was added to each well, and the absorbance at 490 nm was recorded using a Dynatech MR5000 plate reader; the % cell death was determined relative to the control cell lysis solution.

PGA-1 cells [4] = assay: LDH cytotoxicity assay (CytoTox 96); assay type: cell-based; settings: PGA-1, 10 µM, 24 h
Text: as §1, §2, §3

HG-3 cells [5] = assay: Annexin V/PI apoptosis assay (FACS); assay type: cell-based, human
Experimental: (§4) The pro-apoptotic effects of selected nitrovinylethanoanthracene compounds 20a and 20f and anthracene chalcones 23a and 25n in HG-3 cells and PGA-1 cells was then investigated using FITC (fluorescein isothiocyanate), Annexin V/PI (propidium iodide) and FACS (fluorescence-activated cell sorting) analysis to characterize the mode of cellular death induced. Apoptosis was assessed as % total apoptosis (total of early (Q3) and late (Q2) apoptosis).
(§5) CLL cells PGA-1 and HG-3 (1 × 10^6 cells/mL) were treated at 37 °C with either the vehicle (1% (v/v) DMSO) or the ethanoanthracene compounds 20a, 20f, 23a and 25n (10 µM, 5 µM and 1 µM) for 48 h, following the protocol previously described. The cells were then harvested via centrifugation at 400× g in a temperature-controlled Sorvall centrifuge. The cells were rinsed with Ca^2+ Annexin-V-binding buffer (0.1 M HEPES, pH 7.4; 0.14 M NaCl; 25 mM CaCl2, 0.5 mL). The samples were resuspended in FITC Annexin V (diluted 1:33 in Ca^2+ Annexin V-binding buffer, 50 µL) and incubated for 10 min (on ice and protected from light). The samples were washed with Annexin-V-binding buffer and resuspended in a PI solution (0.5 µg/mL, 500 µL) and analyzed within 1 h using a BD Accuri C6 flow cytometer counting 10,000 cells using the FlowJo software Version 10 (FlowJo LLC, Ashland, OR, USA).

PGA-1 cells [6] = assay: Annexin V/PI apoptosis assay (FACS); assay type: cell-based, human
Experimental: as §4, §5

SR = assay: NCI-60 five-dose assay; assay type: cell-based, human
MOLT-4 = assay: NCI-60 five-dose assay; assay type: cell-based, human; settings: MOLT-4
RPMI-8226 = assay: NCI-60 five-dose assay; assay type: cell-based, human; settings: RPMI-8226
[7] = test system: NCI 60 cancer cell line panel; assay: NCI-60 five-dose assay, full-panel means; assay type: cell-based
Experimental: (§6) A number of our most promising compounds identified through preliminary cell viability testing (23c, 23d, 23f, 23h, 23l, 23m, 23n, 23o, 24f, 24l, 25n and 26n) were selected for NCI drug screening in the 60-cell-line panel. The panel includes nine subcategories based on cancer tissue types, which include leukemia, ovarian, central nervous system, breast, lung, prostate, skin, renal and colon cancer. The compounds were initially assessed in a one-dose assay at a fixed treatment concentration of 10 µM. The compounds selected for further investigation were progressed to a five-dose assay across the concentration ranges of 0.01, 0.1, 1, 10 and 100 µM [72]. The endpoints assessed in the screening protocol were GI50, TGI and LC50 [72].

melanoma cell lines = assay: NCI-60 five-dose assay, melanoma cell lines; assay type: cell-based, human; settings: range over melanoma cell lines
Experimental: as §6

leukemia cell panel = assay: NCI-60 five-dose assay, leukemia cell panel mean; assay type: cell-based, human; settings: mean across the six leukemia cell lines
CCRF-CEM = assay: NCI-60 five-dose assay; assay type: cell-based, human
HG-3 cells [8] = settings: 10 µM
[9] = HPLC stability study in phosphate buffers; assay type: physicochemical
Experimental: A preliminary stability study was carried out on selected chalcones, maleic anhydride and maleimide adducts at acidic, neutral and basic conditions (pH 4, 7.4 and 9) using HPLC to determine suitability for further preclinical investigations. […] A possible degradation route for the maleimide 23n could be through the hydrolysis of the cyclic imide of the maleimide ring, leading to the resultant amic acid product.
All samples were analyzed using acetonitrile–water (80:20%, 70:30%, 60:40% isocratic) as the mobile phase over 10 min and a flow rate of 1 mL/min. Stock solutions were prepared by dissolving 5 mg of compounds in a mobile phase ([(acetonitrile (80%): water (20%)], 10 mL). Anhydride 22h was not detected at its retention time of 5.2 min at pH 9.0. The data presented represent the results of single experiments.
The HPLC stability studies for compounds 21a, 21i, 22h, 23a, 23g, 23n, 24a, 24h, 26a and 26n were performed using a Symmetry® column (C18, 5 µm, 4.6 × 150 mm), a Waters 2487 Dual Wavelength Absorbance detector, and an HPLC pump: Waters 1525 binary and Autosampler; Waters 717 plus (Waters Corporation, Milford, MA, USA), mobile phase [(acetonitrile (80%) and water (20%)] with a typical run time of 10 min and a flow rate of 1 mL/min with detection at 254 nm. The selected compounds 21a, 21i, 22h, 23a, 23g, 23n, 24a, 24h, 26a and 26n (5 mg) in the mobile phase (10 mL) provided the stock solution for the analysis. The phosphate buffers were prepared at pH values of 4, 7.4 and 9, as described in the British Pharmacopoeia monograph 2019. The stock solution (30 µL) was added to the appropriate buffer (1 mL) and retained at 37 °C. Samples were then analyzed over the following 24-h period at selected time intervals (t = 0 min, 5 min, 30 min, 60 min, 90 min, 120 min and 24 h).

[10] = test system: HG-3 and PGA-1 cell lines; assay: alamarBlue cell viability assay, mean of both CLL cell lines; assay type: cell-based, human; settings: mean of HG-3 and PGA-1
HL-60(TB) = assay: NCI-60 five-dose assay; assay type: cell-based, human; settings: HL-60(TB)
K-562 = assay: NCI-60 five-dose assay; assay type: cell-based, human; settings: K-562
[11] = Homo sapiens, read-out: cell viability, HG-3, 10 µM, 24 h, vehicle = 100%

SMILES: O=C1C2C3c4ccccc4C(C=C[N+](=O)[O-])(c4ccccc43)C2C(=O)N1CCCCCCN1C(=O)C2C3c4ccccc4C(C=C[N+](=O)[O-])(c4ccccc43)C2C1=O (centres unmarked) [Compound 20f]
potency relative to fludarabine control (HG-3 cells [1]; HG-3, IC50 ratio): 165 fold | IC50 (HG-3 cells [1]; Homo sapiens): 0.17 µM | viability at 10 µM (HG-3 cells [1]; Homo sapiens, read-out: cell viability): 14 to 43% | IC50 (PGA-1 cells [2]; Homo sapiens, 24 h): 0.35 µM | viability at 10 µM (PGA-1 cells [2]; Homo sapiens, 24 h): 17% | potency relative to fludarabine control (PGA-1 cells [2]; PGA-1, IC50 ratio): 91 fold | LDH release (cytotoxicity, % cell death) (HG-3 cells [3]; HG-3, 1 µM): 12% | LDH release (cytotoxicity, % cell death) (HG-3 cells [3]; HG-3, 10 µM, lysis solution = 100%): 19% | LDH release (cytotoxicity, % cell death) (PGA-1 cells [4]): 19% | total apoptosis (early Q3 + late Q2) (HG-3 cells [5]; HG-3, 1 µM): 82% | total apoptosis (early Q3 + late Q2) (HG-3 cells [5]; HG-3, 10 µM): 82–95% and 82% | total apoptosis (early Q3 + late Q2) (PGA-1 cells [6]; PGA-1, 1 µM): 76% | total apoptosis (early Q3 + late Q2) (PGA-1 cells [6]; PGA-1, 10 µM): 87–97% and 88%

SMILES: COc1cc(C(=O)/C=C/c2c3ccccc3cc3ccccc23)cc(OC)c1OC [Compound 21k, (E)-3-(Anthracen-9-yl)-1-(3,4,5-trimethoxyphenyl)prop-2-en-1-one]
melting point: 160 to 164 °C | viability at 1 µM (HG-3 cells [1]; Homo sapiens): 50 to 61% | viability at 10 µM (HG-3 cells [1]; [11]): 37 to 54% | viability at 10 µM (PGA-1 cells [2]; Homo sapiens, 24 h): 43%

SMILES: O=C(/C=C/c1c2ccccc2cc2ccccc12)c1ccc2ccccc2c1 [Compound 21p, (E)-3-(anthracen-9-yl)-1-(naphthalen-2-yl)prop-2-en-1-one]
melting point: 160 to 164 °C | viability at 10 µM (PGA-1 cells [2]; Homo sapiens, 24 h): 50%

SMILES: O=C(/C=C/c1c2ccccc2cc2ccccc12)c1cccs1 [Compound 21q, (E)-3-(anthracen-9-yl)-1-(thiophen-2-yl)prop-2-en-1-one]
melting point: 157 to 158 °C

SMILES: O=C(/C=C/C12c3ccccc3C(c3ccccc31)C1C(=O)NC(=O)C12)c1ccccn1 (centres unmarked) [Compound 23n]
GI50 (SR): 0.78 µM | GI50 (MOLT-4): 2.11 µM | GI50 (RPMI-8226): 1.22 µM | CC50 [7]: 14.8 µM | Mean TGI (MID TGI, total growth inhibition) ([7]; mean over NCI 60 cell line panel): 4.570 µM | GI50 ([7]; mean over NCI 60 cell line panel, read-out: Mean GI50 (MID GI50, full-panel mean-graph mid-point)): 1.66 µM | GI50 (melanoma cell lines): 1.12 to 2.14 µM | IC50 (HG-3 cells [1]): 2.39 µM | GI50 (leukemia cell panel): 1.32 µM | GI50 (CCRF-CEM): 1.44 µM | IC50 (PGA-1 cells [2]; PGA-1, 24 h): 1.48 µM | cell viability (HG-3 cells [8]): 2% | Half-life pH 4 ([9]; pH 4 buffer, 37 °C): 19 h | % remaining 24 h pH 4 ([9]; pH 4 buffer, 37 °C, 24 h, HPLC): 39% and 38.86% | Half-life pH 7.4 ([9]; pH 7.4 buffer, 37 °C): > 24 h | % remaining 24 h pH 7.4 ([9]; pH 7.4 buffer, 37 °C, 24 h, HPLC): 70% and 70.29% | decrease in compound concentration over 24 h ([9]; pH 9.0): 11% | Half-life pH 9 ([9]; pH 9 buffer, 37 °C): > 24 h | % remaining 24 h pH 9 ([9]; pH 9 buffer, 37 °C, 24 h, HPLC): 89% and 88.59% | IC50 [10]: 1.94 µM | GI50 (HL-60(TB)): 1.02 µM | GI50 (K-562): 1.37 µM

SMILES: COC(=O)C1=C(C(=O)OC)C2(C=CC(=O)c3ccccc3)c3ccccc3C1c1ccccc12 [Compound 27, Dimethyl (E)-9-(3-oxo-3-phenylprop-1-en-1-yl)-9,10-dihydro-9,10-ethenoanthracene-11,12-dicarboxylate]
melting point: > 250 °C | viability at 10 µM (HG-3 cells [1]; [11]): 50% | viability at 10 µM (PGA-1 cells [2]; Homo sapiens, 24 h): 58%

Continued, in another order:

melting point: 128 to 129 °C
SMILES: CCc1ccc(C(=O)/C=C/c2c3ccccc3cc3ccccc23)cc1 [Compound 21c, (E)-3-(anthracen-9-yl)-1-(4-ethylphenyl)prop-2-en-1-one]

melting point: 128 to 130 °C
SMILES: O=C(/C=C/c1c2ccccc2cc2ccccc12)c1ccccc1 [Compound 21f, (E)-3-(anthracen-9-yl)-1-phenylprop-2-en-1-one]

melting point: 167 to 173 °C
SMILES: O=C(/C=C/c1c2ccccc2cc2ccccc12)c1ccc(I)cc1 [Compound 21g, (E)-3-(anthracen-9-yl)-1-(4-iodophenyl)prop-2-en-1-one]

melting point: 98 to 103 °C
SMILES: Cc1ccc(C(=O)/C=C/c2c3ccccc3cc3ccccc23)cc1 [Compound 21j, (E)-3-(anthracen-9-yl)-1-(p-tolyl)prop-2-en-1-one]

melting point: 170 to 173 °C
SMILES: O=C(/C=C/c1c2ccccc2cc2ccccc12)c1ccncc1 [Compound 21m, (E)-3-(anthracen-9-yl)-1-(pyridin-4-yl)prop-2-en-1-one]
viability at 1 µM (HG-3 cells [1]; Homo sapiens): 50 to 61% | viability at 10 µM (HG-3 cells [1]; [11]): 37 to 54% | viability at 10 µM (PGA-1 cells [2]; Homo sapiens, 24 h): 43%
